{"source": "PubChem BioAssay AID1963838", "about": "(Molecular Pharmacology Branch, DTP, NCI, 2024)", "tested_on": "855422-203-R-J1-PDC complex spheroid viability", "assay": "Anticancer human tumor 855422-203-R-J1-PDC patient-derived bladder carcinoma cell line growth inhibition [POLQ]", "details": "for viability, T/C: stronger effect = lower value", "description": "Multicellular complex tumor spheroid response to Polymerase (POL) inhibitors (novobiocin, ART-558, RP6685) in combination with a variety of drugs and investigational agents in selected tumor cell lines\nThe POL inhibitors (novobiocin, ART-558, and RP6685) were evaluated both individually and in combination with standard of care and investigational anticancer small molecules within a complex spheroid model of solid tumors. . Complex spheroids include a stromal component modeled by human endothelial cells (HUVEC) and fibroblasts modeled by human mesenchymal stem cells (MSCs). The concentration ranges selected for each drug and investigational agent were based upon clinically achievable concentrations if the clinical Cmax of the agent was known.\nCompounds. The drugs and investigational agents: novobiocin (NSC847541), ART-558 (NSC835418), RP-6685 (NSC848927), peposertib (NSC802822), ceralasertib (NSC780249), elimusertib (NSC800525), camonsertib (NSC841442), AZD-1390 (NSC803789), olaparib (NSC753686), talazoparib (NSC767125), rucaparib (NSC756644), sotorasib (NSC818433), MRTX-1133 (NSC836407), SN-38 (NSC673596), topotecan (NSC609699), epotoside (NSC141540), doxorubicin (NSC123127), gemcitabine (NSC613327), 5-fluorouracil (NSC19893), paclitaxel (NSC125973), vemurafenib (NSC761431), MSA-2 (NSC828583), SN-011 (NSC837082), adavosertib (NSC754352), prexasertib (NSC758257), carboplatin (NSC241240) and oxaliplatin (NSC266046), were obtained from the National Cancer Institute (NCI) Developmental Therapeutics Program Chemical Repository (21). The FDA-approved anticancer drug set is available from the Developmental Therapeutics Program at https://dtp.cancer.gov/organization/dscb/obtaining/. […] The stock solutions were prepared in dimethyl sulfoxide (DMSO, Sigma-Aldrich, St. Louis, MO, cat. D2650), except for the platinum compounds which were prepared in saline (Quality Biological, Gaithersburg, MD, cat. 114-055-101), at 800-fold the tested concentration and stored at -70 degrees C prior to their use. All drugs and investigational agents were tested over a range starting from a high concentration at or near the clinical Cmax and decreasing in half-log increments. If the clinical Cmax for an agent had not been determined, the highest concentration tested was 10 microM, except for SN-38, which was tested at a high concentration of 1 microM.\nCell Culture. All cells were maintained in an incubator at 37 degrees C and 5% CO2 with 95% humidity. The PDC lines were cultured according to standard operating procedures established by the NCI PDMR (https://pdmr.cancer.gov). Table 3 of the manuscript, lists the cell lines along with the number of the three cell types plated to form the mct-spheroids and media for tumor cell growth. After thawing, all PDC lines, except 997537-175-T-J1-PDC and 415267-285-R-J2-PDC, were cultured in Matrigel-coated flasks prepared with a working solution of 1X Ham's F-12 nutrient mix, without supplementation (Thermo Fisher Scientific, cat. 11765054), 100 U/mL penicillin-streptomycin (Thermo Fisher Scientific, cat. 15140122), and 2.5% Matrigel (Corning Inc., Corning, NY, cat. 354248) for the first three passages. The two PDC lines 997537-175-T-J1-PDC and 415267-285-R-J2-PDC were cultured on uncoated flasks. The 857933-349-R-J2-PDC line was cultured in 6C/Colon 1B media containing advanced DMEM/F-12 (Thermo Fisher Scientific, cat. 12634028), 10 mM HEPES (Thermo Fisher Scientific, cat. 15630080), 1X GlutaMAX supplement (Thermo Fisher Scientific, cat. 35050061), 0.1 mg/mL primocin (InvivoGen, San Diego, CA, cat. ant-pm-2), 10% defined fetal bovine serum, heat inactivated (HyClone Laboratories Inc., Logan, UT, cat. SH30070.03HI), 50% L-WRN conditioned media (ATCC, cat. CRL-3276), 1.25 mM N-Acetyl-L-cysteine (Sigma-Aldrich, cat. A9165), 10 mM nicotinamide (Sigma-Aldrich, cat. N0636), 1X B-27 supplement (Thermo Fisher Scientific, cat. 17504044), 1X N-2 supplement (Thermo Fisher Scientific, cat. […]", "note": "“And” between values parts separate entries of the source, which are not always exact repeats. Equal values may be shown once.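 Note: spheroids exposed to compounds for seven days before readout.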", "data": [{"smiles": "Cn1ncnc1[C@H]1c2n[nH]c(=O)c3cc(F)cc(c23)N[C@@H]1c1ccc(F)cc1", "note": "+ Nc1ccc(C#CCN(C(=O)Cc2ncc(C(F)(F)F)cc2C(F)(F)F)c2ccc(F)cc2)nn1", "values": [{"measurement": "IC50", "setting": "curve of first compound, second compound 0.0316 µM", "result": "> 0.1", "unit": "µM"}, {"measurement": "IC50", "setting": "curve of first compound, second compound 0.1 µM", "result": "> 0.1", "unit": "µM"}, {"measurement": "IC50", "setting": "curve of first compound, second compound 0.316 µM", "result": "> 0.1", "unit": "µM"}, {"measurement": "IC50", "setting": "curve of first compound, second compound 1 µM", "result": "> 0.1", "unit": "µM"}, {"measurement": "IC50", "setting": "curve of first compound, second compound 3.16 µM", "result": "> 0.1", "unit": "µM"}, {"measurement": "IC50", "setting": "curve of first compound, second compound 10 µM", "result": "> 0.1", "unit": "µM"}, {"measurement": "viability, T/C", "setting": "second compound 0.0316 µM, first compound 0.000316 µM", "result": 96.1, "unit": "%"}, {"measurement": "viability, T/C", "setting": "second compound 0.0316 µM, first compound 0.001 µM", "result": 125, "unit": "%"}, {"measurement": "viability, T/C", "setting": "second compound 0.0316 µM, first compound 0.00316 µM", "result": 96, "unit": "%"}, {"measurement": "viability, T/C", "setting": "second compound 0.0316 µM, first compound 0.01 µM", "result": 82, "unit": "%"}, {"measurement": "viability, T/C", "setting": "second compound 0.0316 µM, first compound 0.0316 µM", "result": 110, "unit": "%"}, {"measurement": "viability, T/C", "setting": "second compound 0.0316 µM, first compound 0.1 µM", "result": 132, "unit": "%"}, {"measurement": "viability, T/C", "setting": "second compound 0.1 µM, first compound 0.000316 µM", "result": 88.6, "unit": "%"}, {"measurement": "viability, T/C", "setting": "second compound 0.1 µM, first compound 0.001 µM", "result": 157, "unit": "%"}, {"measurement": "viability, T/C", "setting": "second compound 0.1 µM, first compound 0.00316 µM", "result": 92, "unit": "%"}, {"measurement": "viability, T/C", "setting": "second compound 0.1 µM, first compound 0.01 µM", "result": 104, "unit": "%"}, {"measurement": "viability, T/C", "setting": "second compound 0.1 µM, first compound 0.0316 µM", "result": 119, "unit": "%"}, {"measurement": "viability, T/C", "setting": "second compound 0.1 µM, first compound 0.1 µM", "result": 147, "unit": "%"}, {"measurement": "viability, T/C", "setting": "second compound 0.316 µM, first compound 0.000316 µM", "result": 91.7, "unit": "%"}, {"measurement": "viability, T/C", "setting": "second compound 0.316 µM, first compound 0.001 µM", "result": 154, "unit": "%"}, {"measurement": "viability, T/C", "setting": "second compound 0.316 µM, first compound 0.00316 µM", "result": 91.4, "unit": "%"}, {"measurement": "viability, T/C", "setting": "second compound 0.316 µM, first compound 0.01 µM", "result": 106, "unit": "%"}, {"measurement": "viability, T/C", "setting": "second compound 0.316 µM, first compound 0.0316 µM", "result": 96.2, "unit": "%"}, {"measurement": "viability, T/C", "setting": "second compound 0.316 µM, first compound 0.1 µM", "result": 181, "unit": "%"}, {"measurement": "viability, T/C", "setting": "second compound 1 µM, first compound 0.000316 µM", "result": 98.8, "unit": "%"}, {"measurement": "viability, T/C", "setting": "second compound 1 µM, first compound 0.001 µM", "result": 154, "unit": "%"}, {"measurement": "viability, T/C", "setting": "second compound 1 µM, first compound 0.00316 µM", "result": 96, "unit": "%"}, {"measurement": "viability, T/C", "setting": "second compound 1 µM, first compound 0.01 µM", "result": 93.2, "unit": "%"}, {"measurement": "viability, T/C", "setting": "second compound 1 µM, first compound 0.0316 µM", "result": 115, "unit": "%"}, {"measurement": "viability, T/C", "setting": "second compound 1 µM, first compound 0.1 µM", "result": 153, "unit": "%"}, {"measurement": "viability, T/C", "setting": "second compound 3.16 µM, first compound 0.000316 µM", "result": 92, "unit": "%"}, {"measurement": "viability, T/C", "setting": "second compound 3.16 µM, first compound 0.001 µM", "result": 135, "unit": "%"}, {"measurement": "viability, T/C", "setting": "second compound 3.16 µM, first compound 0.00316 µM", "result": 95.7, "unit": "%"}, {"measurement": "viability, T/C", "setting": "second compound 3.16 µM, first compound 0.01 µM", "result": 106, "unit": "%"}, {"measurement": "viability, T/C", "setting": "second compound 3.16 µM, first compound 0.0316 µM", "result": 134, "unit": "%"}, {"measurement": "viability, T/C", "setting": "second compound 3.16 µM, first compound 0.1 µM", "result": 122, "unit": "%"}, {"measurement": "viability, T/C", "setting": "second compound 10 µM, first compound 0.000316 µM", "result": 93.2, "unit": "%"}, {"measurement": "viability, T/C", "setting": "second compound 10 µM, first compound 0.001 µM", "result": 110, "unit": "%"}, {"measurement": "viability, T/C", "setting": "second compound 10 µM, first compound 0.00316 µM", "result": 88.3, "unit": "%"}, {"measurement": "viability, T/C", "setting": "second compound 10 µM, first compound 0.01 µM", "result": 100, "unit": "%"}, {"measurement": "viability, T/C", "setting": "second compound 10 µM, first compound 0.0316 µM", "result": 102, "unit": "%"}, {"measurement": "viability, T/C", "setting": "second compound 10 µM, first compound 0.1 µM", "result": 132, "unit": "%"}]}, {"smiles": "O=C(c1cc(Cc2n[nH]c(=O)c3ccccc23)ccc1F)N1CCN(C(=O)C2CC2)CC1", "values": [{"measurement": "viability, T/C", "setting": "compound 0.0316 µM", "result": "109% and 103% and 94%"}, {"measurement": "viability, T/C", "setting": "compound 0.1 µM", "result": "107% and 106% and 112%"}, {"measurement": "viability, T/C", "setting": "compound 0.316 µM", "result": "92.1% and 100% and 112%"}, {"measurement": "viability, T/C", "setting": "compound 1 µM", "result": "108% and 103% and 98.3%"}, {"measurement": "viability, T/C", "setting": "compound 3.16 µM", "result": "106% and 98.1% and 124%"}, {"measurement": "viability, T/C", "setting": "compound 10 µM", "result": "82.5% and 70% and 121%"}, {"measurement": "IC50", "setting": "curve of compound", "result": "> 10", "unit": "µM"}]}, {"smiles": "CCc1cc2c(N3CCc4c(cc(Cn5ccnc5)cc4-c4cn(C)nc4C(F)(F)F)C3=O)cc(C)nc2c(OC)n1", "values": [{"measurement": "viability, T/C", "setting": "compound 0.0316 µM", "result": "89.8% and 99.4% and 115%"}, {"measurement": "viability, T/C", "setting": "compound 0.1 µM", "result": "81.6% and 103% and 101%"}, {"measurement": "viability, T/C", "setting": "compound 0.316 µM", "result": "74.5% and 132% and 120%"}, {"measurement": "viability, T/C", "setting": "compound 1 µM", "result": "62.8% and 85.8% and 94.5%"}, {"measurement": "viability, T/C", "setting": "compound 3.16 µM", "result": "49.1% and 62% and 75.6%"}, {"measurement": "viability, T/C", "setting": "compound 10 µM", "result": "26.1% and 50.8% and 38.6%"}, {"measurement": "IC50", "setting": "curve of compound", "result": "2.62 µM and > 10 µM and 6.96 µM"}]}]}
